According to ChEMBL document CHEMBL3885881, “DrugMatrix”:

Species: Rattus norvegicus
Assay: DrugMatrix - Regimen: Daily Repeat
Type: toxicity, organism-based, Sprague-Dawley
Set-up: regimen Daily Repeat, gender Male, age 6-8 weeks
Conditions: in vivo, po, 35 mg/kg, route oral GAVAGE, dose level High, vehicle .5 % CMC; for ABSOLUTE BASOPHIL / ABSOLUTE EOSINOPHIL / ABSOLUTE LYMPHOCYTE / ABSOLUTE MONOCYTE / ABSOLUTE SEGMENTED NEUTROPHIL / BASOPHIL / EOSINOPHIL / ERYTHROCYTE COUNT / HEMATOCRIT / HEMOGLOBIN / LEUKOCYTE COUNT / LYMPHOCYTE / MEAN CORPUSCULAR HEMOGLOBIN / MEAN CORPUSCULAR HEMOGLOBIN CONCENTRATION / MEAN CORPUSCULAR VOLUME / MONOCYTE / NEUTROPHIL / NUCLEATED RED BLOOD CELLS / PLATELET COUNT: tissue Blood; for ALANINE AMINOTRANSFERASE / ALBUMIN / ALKALINE PHOSPHATASE / ASPARTATE AMINOTRANSFERASE / BLOOD UREA NITROGEN / CARBON DIOXIDE / CHLORIDE / CHOLESTEROL / CREATINE PHOSPHOKINASE / CREATININE / GLUCOSE / LACTATE DEHYDROGENASE / LIPASE / PHOSPHORUS / POTASSIUM / SODIUM / TOTAL BILIRUBIN / TOTAL PROTEIN / URIC ACID: tissue Plasma

SMILES: COc1cc(CNC(=O)CCCC/C=C/C(C)C)ccc1O [CAPSAICIN]
- ABSOLUTE BASOPHIL (72 h, time 3 day): 0 CELLS/uL
- ABSOLUTE EOSINOPHIL (72 h, time 3 day): 0 CELLS/uL
- ABSOLUTE LYMPHOCYTE (72 h, time 3 day): 7477.33 CELLS/uL
- ABSOLUTE MONOCYTE (72 h, time 3 day): 60 CELLS/uL
- ABSOLUTE SEGMENTED NEUTROPHIL (72 h, time 3 day): 496 CELLS/uL
- BASOPHIL (72 h, time 3 day): 0%
- EOSINOPHIL (72 h, time 3 day): 0%
- ERYTHROCYTE COUNT (72 h, time 3 day): 5.28 x10E6/uL
- HEMATOCRIT (72 h, time 3 day): 33.53%
- HEMOGLOBIN (72 h, time 3 day): 12.7 G/DL
- LEUKOCYTE COUNT (72 h, time 3 day): 8.03 x10E3/uL
- LYMPHOCYTE (72 h, time 3 day): 92.67%
- MEAN CORPUSCULAR HEMOGLOBIN (72 h, time 3 day): 24.13 pg
- MEAN CORPUSCULAR HEMOGLOBIN CONCENTRATION (72 h, time 3 day): 37.9 G/DL
- MEAN CORPUSCULAR VOLUME (72 h, time 3 day): 63.63 fL
- MONOCYTE (72 h, time 3 day): 1%
- NEUTROPHIL (72 h, time 3 day): 6.33%
- NUCLEATED RED BLOOD CELLS (72 h, time 3 day): 0.33 /100WBC
- PLATELET COUNT (72 h, time 3 day): 1342.33 x10E3/uL
- ALANINE AMINOTRANSFERASE (72 h, time 3 day): 44 u/L
- ALBUMIN (72 h, time 3 day): 4.33 G/DL
- ALKALINE PHOSPHATASE (72 h, time 3 day): 316 u/L
- ASPARTATE AMINOTRANSFERASE (72 h, time 3 day): 71.33 u/L
- BLOOD UREA NITROGEN (72 h, time 3 day): 17.33 mg/dL
- CARBON DIOXIDE (72 h, time 3 day): 27.67 mmol/L
- CHLORIDE (72 h, time 3 day): 103.5 MEQ/L
- CHOLESTEROL (72 h, time 3 day): 75.67 mg/dL
- CREATINE PHOSPHOKINASE (72 h, time 3 day): 217 u/L
- CREATININE (72 h, time 3 day): 0.22 mg/dL
- GLUCOSE (72 h, time 3 day): 141.67 mg/dL
- LACTATE DEHYDROGENASE (72 h, time 3 day): 119.33 u/L
- LIPASE (72 h, time 3 day): 8.5 u/L
- PHOSPHORUS (72 h, time 3 day): 11.67 mg/dL
- POTASSIUM (72 h, time 3 day): 5.75 MEQ/L
- SODIUM (72 h, time 3 day): 147.2 MEQ/L
- TOTAL BILIRUBIN (72 h, time 3 day): 0.27 mg/dL
- TOTAL PROTEIN (72 h, time 3 day): 6.13 G/DL
- URIC ACID (72 h, time 3 day): 1.1 mg/dL
- ABSOLUTE BASOPHIL (120 h, time 5 day): 0 CELLS/uL
- ABSOLUTE EOSINOPHIL (120 h, time 5 day): 117.33 CELLS/uL
- ABSOLUTE LYMPHOCYTE (120 h, time 5 day): 12147.67 CELLS/uL
- ABSOLUTE MONOCYTE (120 h, time 5 day): 58.67 CELLS/uL
- ABSOLUTE SEGMENTED NEUTROPHIL (120 h, time 5 day): 1243 CELLS/uL
- BASOPHIL (120 h, time 5 day): 0%
- EOSINOPHIL (120 h, time 5 day): 1%
- ERYTHROCYTE COUNT (120 h, time 5 day): 5.71 x10E6/uL
- HEMATOCRIT (120 h, time 5 day): 34.97%
- HEMOGLOBIN (120 h, time 5 day): 13.33 G/DL
- LEUKOCYTE COUNT (120 h, time 5 day): 13.57 x10E3/uL
- LYMPHOCYTE (120 h, time 5 day): 88.67%
- MEAN CORPUSCULAR HEMOGLOBIN (120 h, time 5 day): 23.4 pg
- MEAN CORPUSCULAR HEMOGLOBIN CONCENTRATION (120 h, time 5 day): 38.13 G/DL
- MEAN CORPUSCULAR VOLUME (120 h, time 5 day): 61.27 fL
- MONOCYTE (120 h, time 5 day): 0.33%
- NEUTROPHIL (120 h, time 5 day): 10%
- NUCLEATED RED BLOOD CELLS (120 h, time 5 day): 0 /100WBC
- PLATELET COUNT (120 h, time 5 day): 1274 x10E3/uL
- ALANINE AMINOTRANSFERASE (120 h, time 5 day): 52.67 u/L
- ALBUMIN (120 h, time 5 day): 4.07 G/DL
- ALKALINE PHOSPHATASE (120 h, time 5 day): 391 u/L
- ASPARTATE AMINOTRANSFERASE (120 h, time 5 day): 83.67 u/L
- BLOOD UREA NITROGEN (120 h, time 5 day): 18 mg/dL
- CARBON DIOXIDE (120 h, time 5 day): 25.67 mmol/L
- CHLORIDE (120 h, time 5 day): 105.33 MEQ/L
- CHOLESTEROL (120 h, time 5 day): 62 mg/dL
- CREATINE PHOSPHOKINASE (120 h, time 5 day): 166.33 u/L
- CREATININE (120 h, time 5 day): 0.21 mg/dL
- GLUCOSE (120 h, time 5 day): 177 mg/dL
- LACTATE DEHYDROGENASE (120 h, time 5 day): 115.67 u/L
- LIPASE (120 h, time 5 day): 8.67 u/L
- PHOSPHORUS (120 h, time 5 day): 13.17 mg/dL
- POTASSIUM (120 h, time 5 day): 6.01 MEQ/L
- SODIUM (120 h, time 5 day): 146.17 MEQ/L
- TOTAL BILIRUBIN (120 h, time 5 day): 0.17 mg/dL
- TOTAL PROTEIN (120 h, time 5 day): 6.03 G/DL
- URIC ACID (120 h, time 5 day): 1.8 mg/dL
